For orientation: IC50 means the point on the concentration scale where inhibition reaches its midpoint.

Each structure is given as a SMILES string.

This experiment has as its target human PAD4 (hPAD4) (Homo sapiens (Human), UniProt Q9UM07). The experiment in a line: RFMS Human PAD4 Functional Assay 1. Type of experiment: biochemical. The note with it: RFMS assay 1; 5 nM hPAD4, 250 μM BAEE substrate, 50 μM calcium, 37° C. The gist of the method:
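Citrullination product read by RapidFire triple-quad MRM against a modified-citrulline internal standard, after TCA stop and 30 min phenyl glyoxal step at 37 °C. Reaction: 250 μM BAEE, 5 nM human PAD4, 90 min at 37 °C, pH 7.5 HEPES buffer with 50 μM calcium and 5 μM TPEN, following 30 min compound–enzyme preincubation (max 50 μM).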

Sequence of human PAD4 (hPAD4) (Q9UM07 whole entry): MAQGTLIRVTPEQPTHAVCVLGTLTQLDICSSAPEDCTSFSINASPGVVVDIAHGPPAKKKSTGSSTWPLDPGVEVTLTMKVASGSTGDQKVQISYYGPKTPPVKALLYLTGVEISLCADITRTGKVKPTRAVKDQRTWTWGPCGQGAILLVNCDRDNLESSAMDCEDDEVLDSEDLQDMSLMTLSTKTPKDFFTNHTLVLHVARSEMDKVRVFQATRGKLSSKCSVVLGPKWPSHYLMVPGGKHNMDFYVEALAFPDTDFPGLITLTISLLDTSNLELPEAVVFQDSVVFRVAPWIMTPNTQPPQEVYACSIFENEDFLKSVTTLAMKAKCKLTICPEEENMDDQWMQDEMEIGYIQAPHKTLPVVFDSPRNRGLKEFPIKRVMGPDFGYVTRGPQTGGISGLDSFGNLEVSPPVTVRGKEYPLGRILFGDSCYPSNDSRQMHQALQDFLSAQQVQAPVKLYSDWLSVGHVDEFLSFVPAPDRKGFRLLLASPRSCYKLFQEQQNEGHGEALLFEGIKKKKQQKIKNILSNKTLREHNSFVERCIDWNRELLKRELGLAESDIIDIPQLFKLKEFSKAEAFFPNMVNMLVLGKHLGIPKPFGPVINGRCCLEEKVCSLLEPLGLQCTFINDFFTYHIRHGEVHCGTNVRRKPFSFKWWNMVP

Regarding `Cc1c(-c2cc3ccnc(OCCn4cnnc4)c3n2CC2CC2)nn2cc(C(=O)N3C[C@H](N)C[C@@H](F)C3)ccc12` [Example 613, (2-(7-(2-(4H-1,2,4-Triazol-4-yl)ethoxy)-1-(cyclopropylmethyl)-1H-pyrrolo[2,3-c]pyridin-2-yl)-3-methylpyrazolo[1,5-a]pyridin-6-yl)((3R,5R)-3-amino-5-fluoropiperidin-1-yl)methanone], the 50% inhibitory concentration (IC50) was determined as 250 nM.

As to `COc1cc(C(=O)N2CCC[C@@H](N)C2)cn2nc(-c3cc4ccc(-c5ccc(CNS(C)(=O)=O)cc5)cc4n3CC3CC3)c(C)c12` [Example 234, N-{[4-(2-{6-[(3R)-3-Aminopiperidine-1-carbonyl]-4-methoxy-3-methylpyrazolo[1,5-a]pyridin-2-yl}-1-(cyclopropylmethyl)-1H-indol-6-yl)phenyl]methyl}methanesulfonamide], the IC50 is 1140 nM.

For `COCC(=O)N1CC(c2cccc3cc(-c4nn5cc(C(=O)N6C[C@H](N)C[C@@H](F)C6)ccc5c4C)n(CC4CC4)c23)C1` [Example 547, 1-(3-(2-(6-((3R,5R)-3-Amino-5-fluoropiperidine-1-carbonyl)-3-methylpyrazolo[1,5-a]pyridin-2-yl)-1-(cyclopropylmethyl)-1H-indol-7-yl)azetidin-1-yl)-2-methoxyethan-1-one], the IC50 turned out to be 490 nM.

Turning to `COc1cc(C(=O)N2CCC[C@@H](N)C2)cn2nc(-c3cc4cccc(C5CCN(C(=O)C6CCCCO6)CC5)c4n3CC3CC3)c(C)c12` (single isomer, unassigned) [Example 387], the IC50 was determined as 230 nM.

With `COc1cc(C(=O)N2CCC[C@@H](N)C2)cn2nc(-c3cc4cccc(OCCn5cncn5)c4n3CC3CC3)c(C)c12` [Example 555, (R)-(2-(7-(2-(1H-1,2,4-Triazol-1-yl)ethoxy)-1-(cyclopropylmethyl)-1H-indol-2-yl)-4-methoxy-3-methylpyrazolo[1,5-a]pyridin-6-yl)(3-aminopiperidin-1-yl)methanone], the IC50 was found to be 30 nM.

As to `Cc1c(-c2cc3ccccc3n2CC2CC2)oc2cc(C(=O)N3C[C@H](N)C[C@@H](F)C3)ccc12` [Example 194, ((3R,5R)-3-Amino-5-fluoropiperidin-1-yl)(2-(1-(cyclopropylmethyl)-1H-indol-2-yl)-3-methylbenzofuran-6-yl)methanone], the IC50 turned out to be 1800 nM.

As for `COc1cc(C(=O)N2CC3CCC2[C@@H]3N)cn2nc(-c3cc4ccc(-c5ccc(OC(F)F)cc5)nc4n3CC3CC3)c(C)c12` (stereo partly drawn) [Example 11, ((7R)-7-Amino-2-azabicyclo[2.2.1]heptan-2-yl)(2-(1-(cyclopropylmethyl)-6-(4-(difluoromethoxy)phenyl)-1H-pyrrolo[2,3-b]pyridin-2-yl)-4-methoxy-3-methylpyrazolo[1,5-a]pyridin-6-yl)methanone], the IC50 was 1370 nM.

As for `COc1cc(C(=O)N2C[C@H](N)C[C@@H](F)C2)cn2nc(-c3cc4cccc(C5CN(C(=O)[C@H]6CC[C@H](O)CC6)C5)c4n3CC3CC3)c(C)c12` [Example 514, ((3R,5R)-3-Amino-5-fluoropiperidin-1-yl)(2-(1-(cyclopropylmethyl)-7-(1-((1R,4R)-4-hydroxycyclohexane-1-carbonyl)azetidin-3-yl)-1H-indol-2-yl)-4-methoxy-3-methylpyrazolo[1,5-a]pyridin-6-yl)methanone], the IC50 stood at 60 nM.

`Cc1c(-c2cc3cccc(C4CCN(C(=O)C5CC(O)C5)CC4)c3n2CC2CC2)nn2cc(C(=O)N3C[C@H](N)C[C@@H](F)C3)cc(F)c12` (mixture of isomers) [Example 419, ((3R,5R)-3-Amino-5-fluoropiperidin-1-yl)(2-(1-(cyclopropylmethyl)-7-(1-(3-hydroxycyclobutane-1-carbonyl)piperidin-4-yl)-1H-indol-2-yl)-4-fluoro-3-methylpyrazolo[1,5-a]pyridin-6-yl)methanone]: the IC50 was found to be 8250 nM.

For `Cc1ccc2cc(-c3nn4cc(C(=O)N5C[C@H](N)C[C@@H](F)C5)ccc4c3C)n(CC3CC3)c2n1` [Example 82, ((3R,5R)-3-Amino-5-fluoropiperidin-1-yl)(2-(1-(cyclopropylmethyl)-6-methyl-1H-pyrrolo[2,3-b]pyridin-2-yl)-3-methylpyrazolo[1,5-a]pyridin-6-yl)methanone], the IC50 was found to be 368 nM.

For `Cc1c(-c2cc3ccc(-c4ccc(C(N)=O)cc4)cc3n2CC2CC2)nn2cc(C(=O)N3C[C@H](N)C[C@@H](F)C3)ccc12` [Example 373, 4-(2-{6-[(3R,5R)-3-Amino-5-fluoropiperidine-1-carbonyl]-3-methylpyrazolo[1,5-a]pyridin-2-yl}-1-(cyclopropylmethyl)-1H-indol-6-yl)benzamide], the 50% inhibitory concentration (IC50) was found to be 200 nM.

On to `Cc1c(-c2cc3cccc(OC[C@@H]4CCC(=O)N4)c3n2CC2CC2)nn2cc(C(=O)N3C[C@H](N)C[C@@H](F)C3)ccc12` [Example 585, (S)-5-(((2-(6-((3R,5R)-3-Amino-5-fluoropiperidine-1-carbonyl)-3-methylpyrazolo[1,5-a]pyridin-2-yl)-1-(cyclopropylmethyl)-1H-indol-7-yl)oxy)methyl)pyrrolidin-2-one], for which the IC50 was determined as 70 nM.

For the compound `Cc1c(-c2cc3cc(F)cc(C4CCN(C(=O)C5CC(O)C5)CC4)c3n2CC2CC2)nn2cc(C(=O)N3C[C@H](N)C[C@@H](F)C3)ccc12` (mixture of isomers) [Example 496, ((3R,5R)-3-Amino-5-fluoropiperidin-1-yl)(2-(1-(cyclopropylmethyl)-5-fluoro-7-(1-(3-hydroxycyclobutane-1-carbonyl)piperidin-4-yl)-1H-indol-2-yl)-3-methylpyrazolo[1,5-a]pyridin-6-yl)methanone], the IC50 stood at 20 nM.

For `COc1cc(-c2ccc3cc(-c4nn5cc(C(=O)N6CC7CCC6[C@@H]7N)ccc5c4C)n(CC4CC4)c3n2)c(F)cn1` (stereo partly drawn) [Example 72, ((7R)-7-Amino-2-azabicyclo[2.2.1]heptan-2-yl)(2-(1-(cyclopropylmethyl)-6-(5-fluoro-2-methoxypyridin-4-yl)-1H-pyrrolo[2,3-b]pyridin-2-yl)-3-methylpyrazolo[1,5-a]pyridin-6-yl)methanone], the IC50 worked out at 67 nM.

As for `COc1cc(C(=O)N2CC3CCC2[C@@H]3N)cc2sc(-c3cc4ccc(-c5cccc(O)c5F)nc4n3CC3CC3)c(C)c12` (stereo partly drawn) [Example 134, ((7R)-7-Amino-2-azabicyclo[2.2.1]heptan-2-yl)(2-(1-(cyclopropylmethyl)-6-(2-fluoro-3-hydroxyphenyl)-1H-pyrrolo[2,3-b]pyridin-2-yl)-4-methoxy-3-methylbenzo[b]thiophen-6-yl)methanone], the IC50 is 212 nM.

For the compound `CC(=O)N(C)C1CCN(c2ccc3cc(-c4nn5cc(C(=O)N6CCC[C@@H](N)C6)ccc5c4C)n(CC4CC4)c3c2)CC1` [Example 359, N-[1-(2-{6-[(3R)-3-Aminopiperidine-1-carbonyl]-3-methylpyrazolo[1,5-a]pyridin-2-yl}-1-(cyclopropylmethyl)-1H-indol-6-yl)piperidin-4-yl]-N-methyl acetamide], the IC50 was found to be 240 nM.

`COc1cc(C(=O)N2C[C@H](N)C[C@@H](F)C2)cn2nc(-c3cc4ccc(C(C)(C)O)cc4n3CC3CC3)c(C)c12` [Example 98, ((3R,5R)-3-Amino-5-fluoropiperidin-1-yl)(2-(1-(cyclopropylmethyl)-6-(2-hydroxypropan-2-yl)-1H-indol-2-yl)-4-methoxy-3-methylpyrazolo[1,5-a]pyridin-6-yl)methanone]: the IC50 was found to be 14 nM.

For `COc1cccc(-c2ccc3cc(-c4nn5cc(C(=O)N6C[C@H](N)C[C@@H](F)C6)cc(OC)c5c4C)n(CC4CC4)c3c2)c1` [Example 212, (3R,5R)-1-{2-[1-(Cyclopropylmethyl)-6-(3-methoxyphenyl)-1H-indol-2-yl]-4-methoxy-3-methylpyrazolo[1,5-a]pyridine-6-carbonyl}-5-fluoropiperidin-3-amine], the IC50 came out at 1690 nM.

Take `CCOCC(=O)N1CCC(c2cccc3cc(-c4nn5cc(C(=O)N6C[C@H](N)C[C@@H](F)C6)ccc5c4C)n(CC4CC4)c23)CC1` [Example 442, 1-(4-(2-(6-((3R,5R)-3-amino-5-fluoropiperidine-1-carbonyl)-3-methylpyrazolo[1,5-a]pyridin-2-yl)-1-(cyclopropylmethyl)-1H-indol-7-yl)piperidin-1-yl)-2-ethoxyethan-1-one]: the IC50 worked out at 30 nM.

For `COc1cc(C(=O)N2C[C@H](N)C[C@@H](F)C2)cn2nc(-c3cc4ccc(-c5ccc(NC(C)=O)cc5)cc4n3CC3CC3)c(C)c12` [Example 214, N-[4-(2-{6-[(3R,5R)-3-Amino-5-fluoropiperidine-1-carbonyl]-4-methoxy-3-methylpyrazolo[1,5-a]pyridin-2-yl}-1-(cyclopropylmethyl)-1H-indol-6-yl)phenyl]acetamide], the IC50 is 150 nM.

Take `Cc1c(-c2cc3ccc(-c4cccc(CO)c4)cc3n2CC2CC2)nn2cc(C(=O)N3CCC[C@@H](N)C3)ccc12` [Example 344, [3-(2-{6-[(3R)-3-Aminopiperidine-1-carbonyl]-3-methylpyrazolo[1,5-a]pyridin-2-yl}-1-(cyclopropylmethyl)-1H-indol-6-yl)phenyl]methanol]: the IC50 was found to be 470 nM.

As for `Cc1c(-c2cc3ccc(N4CCC(N5CCCC5=O)CC4)cc3n2CC2CC2)nn2cc(C(=O)N3C[C@H](N)C[C@@H](F)C3)ccc12` [Example 356, 1-[1-(2-{6-[(3R,5R)-3-Amino-5-fluoropiperidine-1-carbonyl]-3-methylpyrazolo[1,5-a]pyridin-2-yl}-1-(cyclopropylmethyl)-1H-indol-6-yl)piperidin-4-yl]pyrrolidin-2-one], the IC50 came to 2780 nM.

For `Cc1c(-c2cc3ccc(N4CCC(S(C)(=O)=O)CC4)nc3n2CC2CC2)nn2cc(C(=O)N3CCC[C@@H](N)C3)cc(F)c12` [Example 270, (3R)-1-{2-[1-(Cyclopropylmethyl)-6-(4-methanesulfonylpiperidin-1-yl)-1H-pyrrolo[2,3-b]pyridin-2-yl]-4-fluoro-3-methylpyrazolo[1,5-a]pyridine-6-carbonyl}piperidin-3-amine], the IC50 is 2110 nM.
